Common to all, as to format: biochemical
One assay addresses PDE9 (Homo sapiens (Human), UniProt O76083). The experiment in a line: PDE9 inhibition assay. Put shortly:
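SPA radiometric read-out: after a 1 hr reaction, yttrium silicate beads were added, allowed to settle 1 hr in the dark and counted. Substrate 10 nM ^3H-cAMP, PDE9 amount giving 20-25% conversion, buffer 50 mM HEPES pH 7.6/10 mM MgCl2/0.02% Tween20, varying inhibitor amounts.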

Another assay deals with PDE1B (Homo sapiens (Human), UniProt Q01064). Put plainly: PDE1 inhibition assay, PDE1B. As to conditions: 15 nM tritium labelled cAMP. The protocol:
(§1) Reactions were initiated by addition of the cyclic nucleotide substrate, and reactions were allowed to proceed for 1 h at room temperature before being terminated through mixing with 20 μL (0.2 mg) yttrium silicate SPA beads (PerkinElmer). The beads were allowed to settle for 1 h in the dark before the plates were counted in a Wallac 1450 Microbeta counter.

The target in another assay is PDE1C (Homo sapiens (Human), UniProt Q14123). Put plainly: PDE1 inhibition assay, PDE1C. As to conditions: 15 nM tritium labelled cAMP. The protocol: as §1
In another assay the target is PDE1A (Homo sapiens (Human), UniProt P54750). Put plainly: PDE1 inhibition assay, PDE1A. As to conditions: 15 nM tritium labelled cAMP. How it is done: Reactions were initiated by addition of the cyclic nucleotide substrate, and reactions were allowed to proceed for 1 h at room temperature before being terminated through mixing with 20 μL (0.2 mg) yttrium silicate SPA beads (PerkinElmer).

This note sets out measurements from patent US10858362B2, “Imidazopyrazinones as PDE1 inhibitors” (H. Lundbeck A/S, priority 2015, dated 2020).

As a reminder, the inhibition is the relative decrease from the control value, in per cent. What is called IC50 is the midpoint of a concentration-inhibition curve. A low value points to higher potency.

Molecules are shown by their SMILES.

PDE1C, sequence (Q14123 whole entry): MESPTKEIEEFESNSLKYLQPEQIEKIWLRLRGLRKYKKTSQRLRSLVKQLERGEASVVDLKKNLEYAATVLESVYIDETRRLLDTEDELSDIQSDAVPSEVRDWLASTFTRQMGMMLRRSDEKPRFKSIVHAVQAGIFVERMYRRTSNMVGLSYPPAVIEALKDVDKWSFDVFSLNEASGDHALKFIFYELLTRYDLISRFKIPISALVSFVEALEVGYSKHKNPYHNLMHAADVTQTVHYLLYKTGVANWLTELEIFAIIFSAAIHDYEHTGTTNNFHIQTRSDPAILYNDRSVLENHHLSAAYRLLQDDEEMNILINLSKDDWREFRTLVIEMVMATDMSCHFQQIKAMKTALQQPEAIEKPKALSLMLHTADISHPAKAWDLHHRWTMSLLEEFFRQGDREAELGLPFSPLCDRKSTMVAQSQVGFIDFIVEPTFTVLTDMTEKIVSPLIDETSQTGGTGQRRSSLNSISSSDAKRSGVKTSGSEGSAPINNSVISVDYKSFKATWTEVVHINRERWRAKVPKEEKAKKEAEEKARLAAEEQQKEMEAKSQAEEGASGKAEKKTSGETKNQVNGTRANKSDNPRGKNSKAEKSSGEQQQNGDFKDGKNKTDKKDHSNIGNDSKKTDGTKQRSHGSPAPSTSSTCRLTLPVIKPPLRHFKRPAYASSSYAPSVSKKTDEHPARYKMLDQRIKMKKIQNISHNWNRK
PDE1A, sequence (P54750 whole entry): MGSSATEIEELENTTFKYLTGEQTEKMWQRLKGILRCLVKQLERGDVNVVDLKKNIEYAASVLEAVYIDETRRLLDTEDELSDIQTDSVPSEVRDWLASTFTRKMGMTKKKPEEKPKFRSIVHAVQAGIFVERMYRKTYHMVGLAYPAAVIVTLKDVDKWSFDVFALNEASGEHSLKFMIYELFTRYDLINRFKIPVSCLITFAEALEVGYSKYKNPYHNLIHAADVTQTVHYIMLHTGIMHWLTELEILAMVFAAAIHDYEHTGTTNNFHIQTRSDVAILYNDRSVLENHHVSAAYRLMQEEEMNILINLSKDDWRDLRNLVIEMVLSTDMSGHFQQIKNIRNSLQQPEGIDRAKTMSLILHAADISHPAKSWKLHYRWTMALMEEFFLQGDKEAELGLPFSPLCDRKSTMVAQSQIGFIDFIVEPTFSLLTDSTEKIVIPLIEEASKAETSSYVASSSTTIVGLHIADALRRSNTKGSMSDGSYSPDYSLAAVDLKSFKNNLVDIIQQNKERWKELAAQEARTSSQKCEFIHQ
PDE1B, sequence (Q01064 whole entry): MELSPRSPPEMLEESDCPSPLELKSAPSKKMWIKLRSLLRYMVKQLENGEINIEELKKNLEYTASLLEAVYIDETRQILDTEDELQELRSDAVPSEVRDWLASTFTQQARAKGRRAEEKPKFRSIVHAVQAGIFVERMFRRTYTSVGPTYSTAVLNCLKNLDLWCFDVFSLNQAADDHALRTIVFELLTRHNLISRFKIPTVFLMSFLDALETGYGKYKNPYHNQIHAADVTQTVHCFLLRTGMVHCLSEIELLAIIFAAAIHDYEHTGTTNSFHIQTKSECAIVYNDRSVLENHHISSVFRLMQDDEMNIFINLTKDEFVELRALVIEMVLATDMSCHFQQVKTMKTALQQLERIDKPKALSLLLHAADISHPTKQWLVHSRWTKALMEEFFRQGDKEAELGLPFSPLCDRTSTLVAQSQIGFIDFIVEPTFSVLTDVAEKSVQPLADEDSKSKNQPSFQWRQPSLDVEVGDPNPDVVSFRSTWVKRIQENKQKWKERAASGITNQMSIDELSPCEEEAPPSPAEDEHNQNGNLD
PDE9, sequence (O76083 whole entry): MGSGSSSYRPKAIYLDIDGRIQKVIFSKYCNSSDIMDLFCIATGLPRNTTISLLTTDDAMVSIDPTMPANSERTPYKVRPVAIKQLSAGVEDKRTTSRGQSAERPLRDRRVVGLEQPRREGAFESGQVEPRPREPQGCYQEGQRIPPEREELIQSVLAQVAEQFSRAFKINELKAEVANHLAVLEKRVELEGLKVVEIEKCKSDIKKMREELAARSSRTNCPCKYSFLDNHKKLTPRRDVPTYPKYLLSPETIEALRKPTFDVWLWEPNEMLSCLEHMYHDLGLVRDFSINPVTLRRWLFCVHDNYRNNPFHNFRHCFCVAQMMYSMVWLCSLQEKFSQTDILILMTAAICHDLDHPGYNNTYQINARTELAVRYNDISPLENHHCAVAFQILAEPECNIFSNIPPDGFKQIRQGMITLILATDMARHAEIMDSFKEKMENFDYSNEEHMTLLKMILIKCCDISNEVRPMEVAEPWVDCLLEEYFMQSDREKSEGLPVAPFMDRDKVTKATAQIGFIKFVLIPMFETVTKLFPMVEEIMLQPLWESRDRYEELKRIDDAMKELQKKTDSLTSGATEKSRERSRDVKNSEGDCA

In the case of `O=c1c2cnc(C3CCOCC3)n2cc(Br)n1Cc1cccc(F)c1` [Example 15, 6-Bromo-7-(3-fluorobenzyl)-3-(tetrahydro-2H-pyran-4-yl)imidazo[1,5-a]pyrazin-8(7H)-one], at PDE9, the inhibition at 10 µM stood at 15%. In addition, the 50% inhibitory concentration (IC50) on PDE1B turned out to be 0.115 µM; at PDE1C it was 0.015 µM; at PDE1A, 0.058 µM.

Consider `CO[C@H]1CC[C@H](Cn2c(C)cn3c(C4CCOCC4)ncc3c2=O)CC1` [Example 68, 7-(((trans)-4-methoxycyclohexyl)methyl)-6-methyl-3-(tetrahydro-2H-pyran-4-yl)imidazo[1,5-a]pyrazin-8(7H)-one], for which the inhibition at 10 µM at PDE9 amounted to 5%. Besides, the values for the half-inhibitory concentration (IC50) against PDE1B, against PDE1C and against PDE1A were 0.127 µM, 1.86 µM and 0.323 µM, respectively.

For the compound `Cc1cn2c(C3CCOCC3)ncc2c(=O)n1CCC(C)C` [Example 62, 7-isopentyl-6-methyl-3-(tetrahydro-2H-pyran-4-yl)imidazo[1,5-a]pyrazin-8(7H)-one], the inhibition at 10 µM against PDE9 came to 7%. The IC50 is 0.558 µM against PDE1B, 0.093 µM against PDE1C and 1.08 µM at PDE1A.

Turning to `O=c1c2cnc(C3CCOCC3)n2cc(Cc2ccccc2)n1CC1CCCCC1` [Example 3, 6-Benzyl-7-(cyclohexylmethyl)-3-(tetrahydro-2H-pyran-4-yl)imidazo[1,5-a]pyrazin-8(7H)-one], the inhibition at 10 µM against PDE9 was -6%. For the same compound, the concentration for half-maximal inhibition (IC50) was determined as 0.012 µM on PDE1B, 0.006 µM against PDE1C and 0.008 µM at PDE1A.

Turning to `COc1ccc(Cn2c(C)cn3c(N4CCCOCC4)ncc3c2=O)cc1` [Example 97, 7-(4-methoxybenzyl)-6-methyl-3-(1,4-oxazepan-4-yl)imidazo[1,5-a]pyrazin-8(7H)-one], the inhibition at 10 µM against PDE9 was -8%. The half-inhibitory concentration (IC50) against PDE1B turned out to be 0.082 µM; against PDE1C, 0.128 µM; at PDE1A, 0.202 µM.

On to `COc1cccc(Cn2c(C)cn3c(C4CCOCC4)ncc3c2=O)c1` [Example 20, 7-(3-Methoxybenzyl)-6-methyl-3-(tetrahydro-2H-pyran-4-yl)imidazo[1,5-a]pyrazin-8(7H)-one], for which the inhibition at 10 µM at PDE9 was -38%. Also, the IC50 against PDE1B stood at 0.175 µM; on PDE1C, 0.062 µM; against PDE1A, 0.416 µM.

With `CCc1cn2c(C3CCOCC3)ncc2c(=O)n1Cc1ccc(OC)cc1` [Example 44, 6-ethyl-7-(4-methoxybenzyl)-3-(tetrahydro-2H-pyran-4-yl)imidazo[1,5-a]pyrazin-8(7H)-one], the inhibition at 10 µM at PDE9 was determined as 18%. The IC50 against PDE1B turned out to be 0.005 µM; at PDE1C it was 0.016 µM; against PDE1A, 0.04 µM.

For `Cc1cn2c([C@]3(C)CCOC3)ncc2c(=O)n1Cc1cccc(F)c1` (single isomer, unassigned; isomer 1) [32, isomer 1], the “% inhibition of PDE9 at 10 microM” value at PDE9 (at 10 microM) is reported as −1%. In addition, the IC50 is 0.122 µM against PDE1B, 0.022 µM on PDE1C and 0.257 µM at PDE1A.

As to `CCCc1ncc2c(=O)n(Cc3cccc(F)c3)ccn12` [Example 1, 7-(3-Fluorobenzyl)-3-propylimidazo[1,5-a]pyrazin-8(7H)-one], the inhibition at 10 µM against PDE9 is -12%. Besides, the IC50 on PDE1B came to 0.79 µM; against PDE1C it was 0.3 µM; against PDE1A, 0.801 µM.

As to `Cc1cn2c(C3(C)CCOCC3)ncc2c(=O)n1Cc1cccc(F)c1` [Example 26, 7-(3-fluorobenzyl)-6-methyl-3-(4-methyltetrahydro-2H-pyran-4-yl)imidazo[1,5-a]pyrazin-8(7H)-one], the inhibition at 10 µM at PDE9 is -2%. In addition, the 50% inhibitory concentration (IC50) against PDE1B was determined as 0.218 µM; against PDE1C, 0.047 µM; at PDE1A it was 0.234 µM.

On to `COc1ccc(Cn2c(C)cn3c(C4CCOCC4)ncc3c2=O)cn1` [Example 57, 7-((6-methoxypyridin-3-yl)methyl)-6-methyl-3-(tetrahydro-2H-pyran-4-yl)imidazo[1,5-a]pyrazin-8(7H)-one], for which the inhibition at 10 µM against PDE9 is -5%. The 50% inhibitory concentration (IC50) against PDE1B was found to be 0.026 µM; against PDE1C, 0.084 µM; at PDE1A, 0.045 µM.
